Source: the NIST ThermoML archive (doi:10.1016/j.fluid.2008.03.011)
± gives the expanded uncertainty stated by the source.

Experiments:
[1] = excess molar enthalpy (molar enthalpy of mixing); xn = mol fraction of the nth substance listed; conditions: 363.15 K, Liquid, Flow calorimetry
[2] = activity coefficient (dimensionless); of the first substance listed, at infinite dilution; xn = mol fraction of the nth substance listed; conditions: 101 kPa, Liquid, x1 = 0
[3] = activity coefficient (dimensionless); of the first substance listed, at infinite dilution; wn = mass fraction of the nth substance listed; conditions: 101 kPa, Liquid, dilutor technique, w1 = 0

CCCCCC[n+]1ccn(C)c1.O=S(=O)([N-]S(=O)(=O)C(F)(F)F)C(F)(F)F + CC1CCCCC1
excess molar enthalpy ([1]; 1617 kPa, x2 = 0.0612): 0.192 ± 0.008 kJ/mol
excess molar enthalpy ([1]; 1617 kPa, x2 = 0.118): 0.385 ± 0.016 kJ/mol
excess molar enthalpy ([1]; 1617 kPa, x2 = 0.1708): 0.553 ± 0.023 kJ/mol
excess molar enthalpy ([1]; 1617 kPa, x2 = 0.2202): 0.695 ± 0.028 kJ/mol
excess molar enthalpy ([1]; 1617 kPa, x2 = 0.2663): 0.735 ± 0.03 kJ/mol
excess molar enthalpy ([1]; 1617 kPa, x2 = 0.3096): 0.723 ± 0.029 kJ/mol
excess molar enthalpy ([1]; 1617 kPa, x2 = 0.3885): 0.644 ± 0.026 kJ/mol
excess molar enthalpy ([1]; 1617 kPa, x2 = 0.4586): 0.569 ± 0.023 kJ/mol
excess molar enthalpy ([1]; 1617 kPa, x2 = 0.5213): 0.502 ± 0.021 kJ/mol
excess molar enthalpy ([1]; 1617 kPa, x2 = 0.6288): 0.395 ± 0.016 kJ/mol
excess molar enthalpy ([1]; 1617 kPa, x2 = 0.7176): 0.302 ± 0.012 kJ/mol
excess molar enthalpy ([1]; 1617 kPa, x2 = 0.7922): 0.22 ± 0.0091 kJ/mol
excess molar enthalpy ([1]; 1617 kPa, x2 = 0.884): 0.113 ± 0.0047 kJ/mol

CC1CCCCC1 [methylcyclohexane] + CCCCCC[n+]1ccn(C)c1.O=S(=O)([N-]S(=O)(=O)C(F)(F)F)C(F)(F)F
activity coefficient ([2]; 303.15 K, dilutor technique): 6.83 ± 0.61
activity coefficient ([2]; 313.15 K, dilutor technique): 6.59 ± 0.59
activity coefficient ([2]; 323.15 K, dilutor technique): 6.3 ± 0.56
activity coefficient ([2]; 333.15 K, dilutor technique): 6.06 ± 0.54

CC1CCCCC1 [methylcyclohexane] + CCCCCCCC[N+]1(C)CCCC1.O=S(=O)([N-]S(=O)(=O)C(F)(F)F)C(F)(F)F
activity coefficient ([2]; 303.15 K, dilutor technique): 4.59 ± 0.41
activity coefficient ([2]; 313.15 K, dilutor technique): 4.41 ± 0.39
activity coefficient ([2]; 323.15 K, dilutor technique): 4.29 ± 0.38
activity coefficient ([2]; 333.15 K, dilutor technique): 4.18 ± 0.37

O [water] + CCCCCCn1cc[n+](C)c1.O=S(=O)([O-])C(F)(F)F
activity coefficient ([3]; 303.15 K): 1.31 ± 0.09
activity coefficient ([3]; 313.15 K): 1.04 ± 0.06
activity coefficient ([3]; 323.15 K): 0.82 ± 0.05
activity coefficient ([3]; 333.15 K): 0.64 ± 0.05

CCO [ethanol] + CCCCCCn1cc[n+](C)c1.O=S(=O)([O-])C(F)(F)F
activity coefficient ([2]; 303.15 K, dilutor technique): 1.05 ± 0.07
activity coefficient ([2]; 313.15 K, dilutor technique): 1 ± 0.06
activity coefficient ([2]; 323.15 K, dilutor technique): 0.94 ± 0.06
activity coefficient ([2]; 333.15 K, dilutor technique): 0.86 ± 0.06

CCO [ethanol] + CCOS(=O)(=O)[O-].CCn1cc[n+](C)c1
activity coefficient ([2]; 323.15 K, dilutor technique): 0.57 ± 0.05
activity coefficient ([2]; 333.15 K, dilutor technique): 0.6 ± 0.05
activity coefficient ([2]; 343.15 K, dilutor technique): 0.65 ± 0.05
activity coefficient ([2]; 353.15 K, dilutor technique): 0.7 ± 0.05

Cc1ccccc1 [toluene] + CCCCCCCC[N+]1(C)CCCC1.O=S(=O)([N-]S(=O)(=O)C(F)(F)F)C(F)(F)F
activity coefficient ([2]; 303.15 K, dilutor technique): 0.67 ± 0.05
activity coefficient ([2]; 313.15 K, dilutor technique): 0.73 ± 0.05
activity coefficient ([2]; 323.15 K, dilutor technique): 0.8 ± 0.05
activity coefficient ([2]; 333.15 K, dilutor technique): 0.86 ± 0.06

Cc1ccccc1 [toluene] + CCCCCC[n+]1ccn(C)c1.O=S(=O)([N-]S(=O)(=O)C(F)(F)F)C(F)(F)F
activity coefficient ([2]; 303.15 K, dilutor technique): 0.85 ± 0.06
activity coefficient ([2]; 313.15 K, dilutor technique): 0.95 ± 0.06
activity coefficient ([2]; 323.15 K, dilutor technique): 1.05 ± 0.07
activity coefficient ([2]; 333.15 K, dilutor technique): 1.14 ± 0.07

CC1CCCCC1 [methylcyclohexane] + CCCCCCn1cc[n+](C)c1.O=S(=O)([O-])C(F)(F)F
activity coefficient ([2]; 303.15 K, dilutor technique): 10.5 ± 0.95
activity coefficient ([2]; 313.15 K, dilutor technique): 10.2 ± 0.9
activity coefficient ([2]; 323.15 K, dilutor technique): 9.77 ± 0.88
activity coefficient ([2]; 333.15 K, dilutor technique): 9.49 ± 0.85

CCCCCC[n+]1ccn(C)c1.O=S(=O)([N-]S(=O)(=O)C(F)(F)F)C(F)(F)F + CCCCCCCC
excess molar enthalpy ([1]; 1548 kPa, x2 = 0.0486): 0.204 ± 0.0084 kJ/mol
excess molar enthalpy ([1]; 1548 kPa, x2 = 0.095): 0.369 ± 0.015 kJ/mol
excess molar enthalpy ([1]; 1548 kPa, x2 = 0.1392): 0.45 ± 0.018 kJ/mol
excess molar enthalpy ([1]; 1548 kPa, x2 = 0.1814): 0.483 ± 0.02 kJ/mol
excess molar enthalpy ([1]; 1548 kPa, x2 = 0.2217): 0.463 ± 0.019 kJ/mol
excess molar enthalpy ([1]; 1548 kPa, x2 = 0.2603): 0.443 ± 0.018 kJ/mol
excess molar enthalpy ([1]; 1548 kPa, x2 = 0.3327): 0.401 ± 0.016 kJ/mol
excess molar enthalpy ([1]; 1548 kPa, x2 = 0.3993): 0.367 ± 0.015 kJ/mol
excess molar enthalpy ([1]; 1548 kPa, x2 = 0.4608): 0.331 ± 0.014 kJ/mol
excess molar enthalpy ([1]; 1548 kPa, x2 = 0.5707): 0.266 ± 0.011 kJ/mol
excess molar enthalpy ([1]; 1548 kPa, x2 = 0.666): 0.202 ± 0.0084 kJ/mol
excess molar enthalpy ([1]; 1548 kPa, x2 = 0.7495): 0.161 ± 0.0067 kJ/mol
excess molar enthalpy ([1]; 1548 kPa, x2 = 0.8568): 0.0951 ± 0.004 kJ/mol

Cc1ccccc1 [toluene] + CCCCCCn1cc[n+](C)c1.O=S(=O)([O-])C(F)(F)F
activity coefficient ([2]; 303.15 K, Dilutor technique): 1.38 ± 0.09
activity coefficient ([2]; 313.15 K, Dilutor technique): 1.52 ± 0.1
activity coefficient ([2]; 323.15 K, Dilutor technique): 1.65 ± 0.12
activity coefficient ([2]; 333.15 K, Dilutor technique): 1.75 ± 0.12

O [water] + CCCC[N+]1(C)CCCC1.O=S(=O)([O-])C(F)(F)F
activity coefficient ([2]; 313.15 K, dilutor technique): 0.67 ± 0.05
activity coefficient ([2]; 323.15 K, dilutor technique): 0.56 ± 0.05
activity coefficient ([2]; 333.15 K, dilutor technique): 0.51 ± 0.04
activity coefficient ([2]; 343.15 K, dilutor technique): 0.44 ± 0.04

CCO [ethanol] + CCCC[N+]1(C)CCCC1.O=S(=O)([O-])C(F)(F)F
activity coefficient ([2]; 313.15 K, dilutor technique): 0.95 ± 0.06
activity coefficient ([2]; 323.15 K, dilutor technique): 0.92 ± 0.06
activity coefficient ([2]; 333.15 K, dilutor technique): 0.88 ± 0.06
activity coefficient ([2]; 343.15 K, dilutor technique): 0.86 ± 0.06
